In ChEMBL document CHEMBL4321809, “Structure-Reactivity Relationships on Substrates and Inhibitors of the Lysine Deacylase Sirtuin 2 from Schistosoma mansoni (SmSirt2)” (J Med Chem, 2019):
Calls of active or inactive are those of the source. The rule behind the calls is not given here.

Key:
[1] = target: T1, NAD-dependent protein deacetylase (Schistosoma mansoni) (UniProt T1VXA1); test: Inhibition of recombinant Schistosoma mansoni sirtuin 2 (21 to 322 residues) expressed in Escherichia coli BL21(DE3) cells assessed as inhibition of substrate deacetylation at 20 uM using ZMAL as substrate relative to control
T1 sequence (whole entry): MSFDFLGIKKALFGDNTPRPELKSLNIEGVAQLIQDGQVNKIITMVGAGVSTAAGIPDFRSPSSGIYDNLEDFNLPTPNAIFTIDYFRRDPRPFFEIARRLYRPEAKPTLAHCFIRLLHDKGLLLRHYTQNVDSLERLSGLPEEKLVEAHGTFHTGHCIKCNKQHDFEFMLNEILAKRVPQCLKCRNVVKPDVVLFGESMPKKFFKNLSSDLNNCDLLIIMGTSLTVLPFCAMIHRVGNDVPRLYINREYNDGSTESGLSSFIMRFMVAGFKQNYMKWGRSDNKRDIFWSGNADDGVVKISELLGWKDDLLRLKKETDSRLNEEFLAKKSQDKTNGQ

[2] = target: T1, NAD-dependent protein deacetylase (Schistosoma mansoni); test: Inhibition of recombinant Schistosoma mansoni sirtuin 2 (21 to 322 residues) expressed in Escherichia coli BL21(DE3) cells assessed as inhibition of substrate demyristoylation at 20 uM using (Z)-(Myr)-Lys-AMC as substrate relative to control
[3] = target: T2, NAD-dependent protein deacetylase sirtuin-2 (Homo sapiens, UniProt Q8IXJ6); test: Inhibition of human sirtuin 2 assessed as inhibition of substrate deacetylation using ZMAL as substrate
T2 sequence (Q8IXJ6 whole entry): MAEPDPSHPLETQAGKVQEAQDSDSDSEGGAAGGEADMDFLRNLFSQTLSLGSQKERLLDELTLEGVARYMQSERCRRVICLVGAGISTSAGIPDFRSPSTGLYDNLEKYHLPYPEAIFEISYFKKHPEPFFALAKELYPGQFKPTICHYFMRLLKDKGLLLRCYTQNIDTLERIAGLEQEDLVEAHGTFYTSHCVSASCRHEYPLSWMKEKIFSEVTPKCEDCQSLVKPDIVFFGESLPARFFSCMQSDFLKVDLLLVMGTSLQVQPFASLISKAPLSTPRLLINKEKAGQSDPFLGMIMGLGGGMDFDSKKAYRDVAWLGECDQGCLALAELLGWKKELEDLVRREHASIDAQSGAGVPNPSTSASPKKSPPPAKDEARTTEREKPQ

[4] = target: T2, NAD-dependent protein deacetylase sirtuin-2; test: Inhibition of human sirutin 2 assessed as inhibition of susbtrate demyristoylation at 20 uM using (Z)-(Myr)-Lys-AMC as substrate relative to control
[5] = target: T3, NAD-dependent protein deacetylase (Schistosoma mansoni, UniProt T1VXA1); test: Inhibition of recombinant Schistosoma mansoni sirtuin 2 (21 to 322 residues) expressed in Escherichia coli BL21(DE3) cells using ZMAL as substrate after 1 hr in presence of NAD+ by homogeneous fluorescence based analysis
T3 sequence (T1VXA1 whole entry): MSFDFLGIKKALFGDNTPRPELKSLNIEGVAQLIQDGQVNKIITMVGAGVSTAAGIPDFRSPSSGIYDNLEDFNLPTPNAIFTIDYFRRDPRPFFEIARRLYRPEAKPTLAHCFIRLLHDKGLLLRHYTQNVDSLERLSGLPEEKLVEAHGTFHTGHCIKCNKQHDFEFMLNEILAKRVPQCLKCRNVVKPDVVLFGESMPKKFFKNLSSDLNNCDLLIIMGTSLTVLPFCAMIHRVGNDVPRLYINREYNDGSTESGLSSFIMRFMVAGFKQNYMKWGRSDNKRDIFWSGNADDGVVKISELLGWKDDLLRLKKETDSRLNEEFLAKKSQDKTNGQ

[6] = target: T2, NAD-dependent protein deacetylase sirtuin-2; test: Inhibition of N-terminal His6 tagged human sirtuin 2 (25 to 389 residues) at 50 uM using Cbz-Lys(acetyl)-AMC as substrate after 4 hrs in presence of NAD+ by homogeneous fluorescence based analysis relative to control
[7] = target: T2, NAD-dependent protein deacetylase sirtuin-2; test: Inhibition of N-terminal His6 tagged human sirtuin 2 (25 to 389 residues) at 25 uM using Cbz-Lys(acetyl)-AMC as substrate after 4 hrs in presence of NAD+ by homogeneous fluorescence based analysis relative to control
[8] = target: T3, NAD-dependent protein deacetylase; test: (§1) Inhibition of recombinant Schistosoma mansoni sirtuin 2 (21 to 322 residues) expressed in Escherichia coli BL21(DE3) cells assessed as inhibition of substrate demyristoylation using (Z)-(Myr)-Lys-AMC as susbtrate after 1 hr in presence of NAD+ by homogeneous fluorescence based analysis
[9] = target: T1, NAD-dependent protein deacetylase (Schistosoma mansoni); test: as §1, with “demyristoylation at 20 uM” for “demyristoylation”, “analysis relative to control” for “analysis”
[10] = target: T2, NAD-dependent protein deacetylase sirtuin-2; test: Inhibition of N-terminal His6 tagged human sirtuin 2 (25 to 389 residues) assessed as inhibition of substrate demyristoylation at 20 uM using (Z)-(Myr)-Lys-AMC as susbtrate after 4 hrs in presence of NAD+ by homogeneous fluorescence based analysis relative to control
Schistosoma mansoni [11] = test: Antiparasitic activity against Schistosoma mansoni Puerto Rico assessed as reduction in parasite viability at 10 to 20 uM after 72 hrs by microscopic analysis; type: functional, organism-based
Schistosoma mansoni [12] = test: Antiparasitic activity against adult Schistosoma mansoni Puerto Rico assessed as reduction in worm pairing at 10 to 20 uM after 24 hrs by microscopic analysis; type: functional, organism-based
Schistosoma mansoni [13] = test: Antiparasitic activity against adult Schistosoma mansoni Puerto Rico assessed as reduction in egg laying at 10 to 20 uM after 24 hrs by microscopic analysis; type: functional, organism-based
HL-60 = test: Cytotoxicity against human HL60 cells at 10 uM after 72 hrs by Cell titer MTS dye based analysis; settings: hl-60, 72 h

Row | inhibition [1] [%] | inhibition [2] [%] | IC50 [3] [µM] | inhibition at 20 µM [4] [%] | IC50 [5] [µM] | inhibition at 50 µM [6] [%] | inhibition at 25 µM [7] [%] | IC50 [8] [µM] | Imax [9] [%] | inhibition at 20 µM [10] [%] | SMILES | inhibition (Schistosoma mansoni [11]) | inhibition (Schistosoma mansoni [12]) | inhibition (Schistosoma mansoni [13]) | Activity (HL-60)
1 | < 15 | < 15 | 2.5 | 42.8 | – | – | – | – | – | – | O=C(NCc1cccnc1)c1ccc2c(c1)C1C3CCC(C3)C1C(c1ccccc1)N2 (centres undefined) | – | – | – | –
2 | – | – | – | – | 23.7 | 24.1 | 21.9 | 16.8 | 45 | < 15 | COc1ccc(Oc2ccc(C(C)N(C)c3ncc4c(N)nc(N)nc4n3)cc2)cc1 (centres undefined) | Active | Active | Active | Non-Toxic
